Measured values taken from PubChem BioAssay (NCI).
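All cell lines were grown in 96-well plates and treated with compound for 48 hours. TGI is the concentration that stops growth completely.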

How the values were obtained:
Experiment in all cases: NCI-60 cell line screen, 48 h
SF-295 CNS = tested on: SF-295 CNS
NCI/ADR-RES ovarian = tested on: NCI/ADR-RES ovarian
OVCAR-5 ovarian = tested on: OVCAR-5 ovarian
HCT-15 colon = tested on: HCT-15 colon
T-47D breast = tested on: T-47D breast
HOP-62 NSCLC = tested on: HOP-62 NSCLC
PC-3 prostate = tested on: PC-3 prostate
TK-10 renal = tested on: TK-10 renal
UO-31 renal = tested on: UO-31 renal
A498 renal = tested on: A498 renal
KM12 colon = tested on: KM12 colon
NCI-H522 lung = tested on: NCI-H522 lung
SK-MEL-2 melanoma = tested on: SK-MEL-2 melanoma
MDA-MB-435 = tested on: MDA-MB-435
HL-60(TB) leukemia = tested on: HL-60(TB) leukemia
MCF7 breast = tested on: MCF7 breast
NCI-H23 lung = tested on: NCI-H23 lung
UACC-257 melanoma = tested on: UACC-257 melanoma
DU-145 prostate = tested on: DU-145 prostate
HCC-2998 colon = tested on: HCC-2998 colon
SN12C renal = tested on: SN12C renal
SK-MEL-5 melanoma = tested on: SK-MEL-5 melanoma
EKVX NSCLC = tested on: EKVX NSCLC
NCI-H460 lung = tested on: NCI-H460 lung
M14 melanoma = tested on: M14 melanoma
MALME-3M melanoma = tested on: MALME-3M melanoma
CCRF-CEM leukemia = tested on: CCRF-CEM leukemia
HS 578T breast = tested on: HS 578T breast
SW-620 colon = tested on: SW-620 colon
SR leukemia = tested on: SR leukemia
HCT-116 colon = tested on: HCT-116 colon
NCI-H226 lung = tested on: NCI-H226 lung
HT29 colon = tested on: HT29 colon
UACC-62 melanoma = tested on: UACC-62 melanoma
SNB-75 CNS = tested on: SNB-75 CNS
MDA-MB-231 breast = tested on: MDA-MB-231 breast
SF-539 CNS = tested on: SF-539 CNS
U251 CNS = tested on: U251 CNS
MOLT-4 leukemia = tested on: MOLT-4 leukemia
OVCAR-3 ovarian = tested on: OVCAR-3 ovarian
786-0 renal = tested on: 786-0 renal
BT-549 breast = tested on: BT-549 breast
COLO 205 colon = tested on: COLO 205 colon
OVCAR-4 ovarian = tested on: OVCAR-4 ovarian
OVCAR-8 ovarian = tested on: OVCAR-8 ovarian
RPMI-8226 leukemia = tested on: RPMI-8226 leukemia
HOP-92 NSCLC = tested on: HOP-92 NSCLC
ACHN renal = tested on: ACHN renal
RXF 393 renal = tested on: RXF 393 renal
CAKI-1 renal = tested on: CAKI-1 renal
IGROV1 ovarian = tested on: IGROV1 ovarian
SF-268 CNS = tested on: SF-268 CNS
K-562 leukemia = tested on: K-562 leukemia
MDA-N = tested on: MDA-N
LOX IMVI melanoma = tested on: LOX IMVI melanoma
A549 NSCLC = tested on: A549 NSCLC
SK-MEL-28 melanoma = tested on: SK-MEL-28 melanoma
SNB-19 CNS = tested on: SNB-19 CNS
SK-OV-3 ovarian = tested on: SK-OV-3 ovarian

Measured: TGI

CN1CCN(c2n[nH]c(=O)c3c2nnn3C2CCCCC2)CC1
not listed: SK-OV-3 ovarian
> 100 µM: all other assays above

S=C(S)NCCN1CCNCC1
47.5 µM: RPMI-8226 leukemia
64.3 µM: RXF 393 renal
82.5 µM: MALME-3M melanoma
77 µM: 786-0 renal
43.7 µM: COLO 205 colon
32.7 µM: NCI-H522 lung
95.3 µM: OVCAR-8 ovarian
60.7 µM: T-47D breast
58.4 µM: TK-10 renal
59 µM: UACC-257 melanoma
63.8 µM: OVCAR-3 ovarian
8.01 µM: HL-60(TB) leukemia
68.7 µM: HCC-2998 colon
not listed: SF-539 CNS | MOLT-4 leukemia
> 100 µM: all other assays above

O=C(O)c1ccc(/C=N/N=C2c3ccccc3-c3ccccc32)cc1
67.4 µM: OVCAR-3 ovarian
89.3 µM: SF-268 CNS
93.3 µM: CAKI-1 renal
92.3 µM: SF-539 CNS
75.1 µM: SK-MEL-2 melanoma
53.1 µM: HS 578T breast
45.5 µM: NCI-H226 lung
32.6 µM: SF-295 CNS
not listed: HCC-2998 colon | SNB-75 CNS
> 100 µM: all other assays above
